The target in assay [1] is T1, MCL-1 (Homo sapiens, UniProt Q07820).
T1 construct: made in house
The assay can be described thus: Photo-crosslinking of labelled BID80-102 peptides to MCL-1, SDS-PAGE band intensity. The conditions noted are these: 20 μM labelled peptide + 20 μM MCL-1, TBS pH 7.6; 365 nm UV LED, 1 min; SDS-PAGE band intensity of crosslinked vs non-crosslinked MCL-1; value ± SD of three repeats; SD. As for the experimental part:
Cross-linking experiments
For all irradiation methods, samples were prepared in the following way. For crosslinking of MCL-1/BID80-102, 20 μL of a solution containing MTS-diazirine or MTS-TFMD labelled BID80-102 peptide (20 μM) and MCL-1 (20 μM) in buffer 50 mM Tris-HCl, 150 mM NaCl (TBS) pH 7.6 was prepared. […]
This was then placed under a covered LF-206.LS 6 W 365 nm lamp (Uvitec) at a distance of 12 mm from the source for different times up to 30 min. For UV LED chip experiments, acrylic chip chambers were washed with TBS pH 7.6 buffer and 33 µL of sample was added. These were then clamped into the chip holder and irradiated with the 365 nm LED for up to 30 s. A pipette was used to remove the sample from the chip via the lower filling hole. For UV LED tube experiments, 30-130 µL of sample was added to a thin-walled PCR tube and placed inside a 0.5 mL microfuge tube which itself was in a 1.5 mL microfuge tube that had been wrapped in aluminium foil (to reflect the UV irradiation within the containers). Samples were irradiated with the 365 nm LED for 30 s. To crosslink MCL-1 BID80-102, samples were irradiated using this apparatus for 1 min.
Separation and enrichment of cross-linked products
To separate and/or enrich crosslinked samples three methods were used as described in the main text.
Table S1: Affinity (EC50) of labelled BID80-102 peptides to MCL-1 as determined by competition fluorescence anisotropy assay. Crosslinking efficiency of labelled BID80-102 peptides to MCL-1 based on the SDS-PAGE band intensity of crosslinked and non-crosslinked […]
The values and standard deviations are results of three repeats. n.d = not determined as binding was too weak to enable an accurate fit to be obtained.
BID peptide EC50 for affinity to MCL-1 (nM) Crosslinked Mcl-1 (%)

The target of assay [2] is Skp. As to conditions: read-out: KD of Skp/OmpA complex; cited from earlier work.

Peptide text beside a SMILES is read from it. * marks the point of attachment. X2 = CC1(CCS*)N=N1

Data on three molecules can be found in article PMC6348423, “Rapid Mapping of Protein Interactions Using Tag‐Transfer Photocrosslinkers” (Angewandte Chemie (International Ed. in English), 2018).

T1 sequence (Q07820 whole entry): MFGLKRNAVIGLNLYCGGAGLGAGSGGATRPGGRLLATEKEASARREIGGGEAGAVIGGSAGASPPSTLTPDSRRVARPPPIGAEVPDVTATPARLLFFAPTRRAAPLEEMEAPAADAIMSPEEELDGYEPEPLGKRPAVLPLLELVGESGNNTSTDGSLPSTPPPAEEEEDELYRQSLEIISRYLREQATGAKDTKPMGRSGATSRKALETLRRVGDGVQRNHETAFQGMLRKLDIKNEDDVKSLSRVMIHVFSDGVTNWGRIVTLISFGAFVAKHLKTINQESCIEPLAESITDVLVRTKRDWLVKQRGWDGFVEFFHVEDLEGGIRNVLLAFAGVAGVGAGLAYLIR

Consider `CC[C@H](C)[C@H](NC(=O)[C@H](CC(N)=O)NC(=O)[C@H](CCCNC(=N)N)NC(=O)[C@@H](NC(=O)[C@@H](NC(=O)[C@H](CC(=O)O)NC(=O)[C@H](CCC(=O)O)NC(C)=O)[C@@H](C)CC)[C@@H](C)CC)C(=O)N[C@@H](C)C(=O)N[C@@H](CCCNC(=N)N)C(=O)N[C@@H](Cc1c[nH]cn1)C(=O)N[C@@H](CC(C)C)C(=O)N[C@@H](C)C(=O)N[C@@H](CCC(N)=O)C(=O)N[C@H](C(=O)NCC(=O)N[C@@H](CC(=O)O)C(=O)N[C@@H](CO)C(=O)N[C@@H](CSSCCC1(C)N=N1)C(=O)N[C@@H](CC(=O)O)C(=O)N[C@@H](CCCNC(=N)N)C(=O)N[C@@H](CO)C(=O)N[C@H](C(=O)N[C@@H](Cc1c[nH]c2ccccc12)C(N)=O)[C@@H](C)CC)C(C)C` [MTS-diazirine labelled M97C] (Ac-EDIIRNIARHLAQVGDSC(X2)DRSIW-NH2), for which the “Crosslinked Mcl-1 (crosslinking efficiency)” value in assay [1] is given as 41 ± 6%.
As to `CC[C@H](C)[C@H](NC(=O)[C@H](CC(N)=O)NC(=O)[C@H](CCCNC(=N)N)NC(=O)[C@@H](NC(=O)[C@@H](NC(=O)[C@H](CC(=O)O)NC(=O)[C@H](CCC(=O)O)NC(C)=O)[C@@H](C)CC)[C@@H](C)CC)C(=O)N[C@@H](C)C(=O)N[C@@H](CCCNC(=N)N)C(=O)N[C@@H](Cc1c[nH]cn1)C(=O)N[C@@H](CC(C)C)C(=O)N[C@@H](C)C(=O)N[C@@H](CCC(N)=O)C(=O)N[C@@H](CSSCCC1(C)N=N1)C(=O)NCC(=O)N[C@@H](CC(=O)O)C(=O)N[C@@H](CO)C(=O)N[C@@H](CCSC)C(=O)N[C@@H](CC(=O)O)C(=O)N[C@@H](CCCNC(=N)N)C(=O)N[C@@H](CO)C(=O)N[C@H](C(=O)N[C@@H](Cc1c[nH]c2ccccc12)C(N)=O)[C@@H](C)CC` [MTS-diazirine labelled V93C] (Ac-EDIIRNIARHLAQC(X2)GDSMDRSIW-NH2), the “Crosslinked Mcl-1 (crosslinking efficiency)” value in assay [1] worked out at 9 ± 3%.

B1: OmpA: E. coli β-barrel outer membrane protein, substrate of the periplasmic chaperone Skp (protein, UniProt P0A910 22-346, looked up)
Outer membrane protein A: APKDNTWYTGAKLGWSQYHDTGFINNNGPTHENQLGAGAFGGYQVNPYVGFEMGYDWLGRMPYKGSVENGAYKAQGVQLTAKLGYPITDDLDIYTRLGGMVWRADTKSNVYGKNHDTGVSPVFAGGVEYAITPEIATRLEYQWTNNIGDAHTIGTRPDNGMLSLGVSYRFGQGEAAPVVAPAPAPAPEVQTKHFTLKSDVLFNFNKATLKPEGQAALDQLYSQLSNLDPKDGSVVVLGYTDRIGSDAYNQGLSERRAQSVVDYLISKGIPADKISARGMGESNPVTGNTCDNVKQRAALIDCLAPDRRVEIEVKGIKDVVTQPQA
In the case of B1, the Kd in assay [2] is 22 ± 16 nM.
